Experimental data as given in article PMC9571063 (Molecules, 2022).

How the values were obtained:
ABL2 = molecular target: T1, ABL2 (Homo sapiens, UniProt P42684); assay: KINOMEscan; assay type: binding; conditions: read-out: Percent Control
T1 construct: purchased Eurofins DiscoverX KINOMEscan (scanMAX 468)

ACVR2B = molecular target: T2, ACVR2B (Homo sapiens, UniProt Q13705); assay: KINOMEscan; assay type: binding; conditions: read-out: Percent Control
T2 construct: purchased Eurofins DiscoverX KINOMEscan (scanMAX 468)

ALK(L1196M) = molecular target: T3, ALK(L1196M) (Homo sapiens, UniProt Q9UM73, L1196M); assay: KINOMEscan; assay type: binding; conditions: read-out: Percent Control
T3 construct: purchased Eurofins DiscoverX KINOMEscan (scanMAX 468)

ANKK1 = molecular target: T4, ANKK1 (Homo sapiens, UniProt Q8NFD2); assay: KINOMEscan; assay type: binding; conditions: read-out: Percent Control
T4 construct: purchased Eurofins DiscoverX KINOMEscan (scanMAX 468)
T4 sequence (Q8NFD2 whole entry): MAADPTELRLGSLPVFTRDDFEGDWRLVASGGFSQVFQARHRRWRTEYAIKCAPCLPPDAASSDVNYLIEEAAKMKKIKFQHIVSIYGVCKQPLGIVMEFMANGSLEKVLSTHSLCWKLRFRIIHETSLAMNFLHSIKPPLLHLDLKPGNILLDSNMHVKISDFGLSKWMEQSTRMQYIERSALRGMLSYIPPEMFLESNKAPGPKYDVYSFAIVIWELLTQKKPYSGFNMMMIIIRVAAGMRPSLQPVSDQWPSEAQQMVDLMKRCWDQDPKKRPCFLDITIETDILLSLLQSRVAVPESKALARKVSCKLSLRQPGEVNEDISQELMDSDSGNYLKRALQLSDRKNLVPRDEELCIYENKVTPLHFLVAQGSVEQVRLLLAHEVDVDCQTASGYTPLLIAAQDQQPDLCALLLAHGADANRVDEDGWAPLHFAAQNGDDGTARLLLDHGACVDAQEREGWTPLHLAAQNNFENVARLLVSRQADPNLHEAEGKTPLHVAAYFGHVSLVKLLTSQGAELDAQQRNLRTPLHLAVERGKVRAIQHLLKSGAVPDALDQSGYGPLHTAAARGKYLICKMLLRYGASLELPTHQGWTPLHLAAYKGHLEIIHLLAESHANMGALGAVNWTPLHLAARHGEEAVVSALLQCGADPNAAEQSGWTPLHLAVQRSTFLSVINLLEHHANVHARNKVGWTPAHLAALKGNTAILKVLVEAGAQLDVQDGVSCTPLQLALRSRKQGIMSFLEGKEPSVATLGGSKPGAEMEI

BMPR1A = molecular target: T5, BMPR1A (Homo sapiens, UniProt P36894); assay: KINOMEscan; assay type: binding; conditions: read-out: Percent Control
T5 construct: purchased Eurofins DiscoverX KINOMEscan (scanMAX 468)

BMX = molecular target: T6, BMX (Homo sapiens, UniProt P51813); assay: KINOMEscan; assay type: binding; conditions: read-out: Percent Control
T6 construct: purchased Eurofins DiscoverX KINOMEscan (scanMAX 468)

CHEK2 = molecular target: T7, CHEK2 (Homo sapiens, UniProt O96017); assay: KINOMEscan; assay type: binding; conditions: read-out: Percent Control
T7 construct: purchased Eurofins DiscoverX KINOMEscan (scanMAX 468)

CSF1R = molecular target: T8, CSF1R (Homo sapiens, UniProt P07333); assay: KINOMEscan; assay type: binding; conditions: read-out: Percent Control
T8 construct: purchased Eurofins DiscoverX KINOMEscan (scanMAX 468)

CSF1R-autoinhibited = molecular target: T9, CSF1R-autoinhibited (Homo sapiens, UniProt P07333); assay: KINOMEscan; assay type: binding; conditions: read-out: Percent Control
T9 construct: purchased Eurofins DiscoverX KINOMEscan (scanMAX 468)

CSNK1G1 = molecular target: T10, CSNK1G1 (Homo sapiens, UniProt Q9HCP0); assay: KINOMEscan; assay type: binding; conditions: read-out: Percent Control
T10 construct: purchased Eurofins DiscoverX KINOMEscan (scanMAX 468)

[1] = molecular target: T11, EGFR(L747-E749del, A750P) (Homo sapiens, UniProt P00533, A750P/DEL747-749); assay: KINOMEscan; assay type: binding; conditions: read-out: Percent Control
T11 construct: purchased Eurofins DiscoverX KINOMEscan (scanMAX 468)

EGFR(L861Q) = molecular target: T12, EGFR(L861Q) (Homo sapiens, UniProt P00533, L861Q); assay: KINOMEscan; assay type: binding; conditions: read-out: Percent Control
T12 construct: purchased Eurofins DiscoverX KINOMEscan (scanMAX 468)

EIF2AK1 = molecular target: T13, EIF2AK1 (Homo sapiens, UniProt Q9BQI3); assay: KINOMEscan; assay type: binding; conditions: read-out: Percent Control
T13 construct: purchased Eurofins DiscoverX KINOMEscan (scanMAX 468)

EPHA1 = molecular target: T14, EPHA1 (Homo sapiens, UniProt P21709); assay: KINOMEscan; assay type: binding; conditions: read-out: Percent Control
T14 construct: purchased Eurofins DiscoverX KINOMEscan (scanMAX 468)

ERBB4 = molecular target: T15, ERBB4 (Homo sapiens, UniProt Q15303); assay: KINOMEscan; assay type: binding; conditions: read-out: Percent Control
T15 construct: purchased Eurofins DiscoverX KINOMEscan (scanMAX 468)

ERK8 = molecular target: T16, ERK8 (Homo sapiens, UniProt Q8TD08); assay: KINOMEscan; assay type: binding; conditions: read-out: Percent Control
T16 construct: purchased Eurofins DiscoverX KINOMEscan (scanMAX 468)
T16 sequence (Q8TD08 whole entry): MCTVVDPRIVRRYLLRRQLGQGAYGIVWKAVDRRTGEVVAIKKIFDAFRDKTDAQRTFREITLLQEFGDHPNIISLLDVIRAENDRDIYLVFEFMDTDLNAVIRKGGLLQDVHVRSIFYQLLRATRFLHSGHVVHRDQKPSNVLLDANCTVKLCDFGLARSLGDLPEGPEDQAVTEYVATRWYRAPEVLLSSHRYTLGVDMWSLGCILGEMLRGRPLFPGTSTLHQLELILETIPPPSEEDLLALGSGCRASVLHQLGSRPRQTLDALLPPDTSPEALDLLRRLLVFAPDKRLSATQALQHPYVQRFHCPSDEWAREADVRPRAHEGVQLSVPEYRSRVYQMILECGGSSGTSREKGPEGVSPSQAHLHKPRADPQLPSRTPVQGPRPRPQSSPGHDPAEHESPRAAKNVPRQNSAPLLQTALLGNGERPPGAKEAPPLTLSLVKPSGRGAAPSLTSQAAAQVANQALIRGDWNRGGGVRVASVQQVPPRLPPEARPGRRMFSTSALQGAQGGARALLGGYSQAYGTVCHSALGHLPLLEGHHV

FGFR3 = molecular target: T17, FGFR3 (Homo sapiens, UniProt P22607); assay: KINOMEscan; assay type: binding; conditions: read-out: Percent Control
T17 construct: purchased Eurofins DiscoverX KINOMEscan (scanMAX 468)

FLT3(D835H) = molecular target: T18, FLT3(D835H) (Homo sapiens, UniProt P36888, D835H); assay: KINOMEscan; assay type: binding; conditions: read-out: Percent Control
T18 construct: purchased Eurofins DiscoverX KINOMEscan (scanMAX 468)

FLT3(D835Y) = molecular target: T19, FLT3(D835Y) (Homo sapiens, UniProt P36888, D835Y); assay: KINOMEscan; assay type: binding; conditions: read-out: Percent Control
T19 construct: purchased Eurofins DiscoverX KINOMEscan (scanMAX 468)

FLT3(ITD,D835V) = assay: KINOMEscan; assay type: binding, human; conditions: 1 μM
FLT3(ITD,F691L) = assay: KINOMEscan; assay type: binding, human; conditions: 1 μM
FLT3-autoinhibited = molecular target: T20, FLT3-autoinhibited (Homo sapiens, UniProt P36888); assay: KINOMEscan; assay type: binding; conditions: read-out: Percent Control
T20 construct: purchased Eurofins DiscoverX KINOMEscan (scanMAX 468)

GRK3 = molecular target: T21, GRK3 (Homo sapiens, UniProt P35626); assay: KINOMEscan; assay type: binding; conditions: read-out: Percent Control
T21 construct: purchased Eurofins DiscoverX KINOMEscan (scanMAX 468)

[2] = molecular target: T22, JAK1(JH1domain-catalytic) (Homo sapiens, UniProt P23458); assay: KINOMEscan; assay type: binding; conditions: read-out: Percent Control
T22 construct: JAK1(JH1domain-catalytic); purchased Eurofins DiscoverX KINOMEscan (scanMAX 468)
T22 sequence (P23458 865-1154 limits assumed): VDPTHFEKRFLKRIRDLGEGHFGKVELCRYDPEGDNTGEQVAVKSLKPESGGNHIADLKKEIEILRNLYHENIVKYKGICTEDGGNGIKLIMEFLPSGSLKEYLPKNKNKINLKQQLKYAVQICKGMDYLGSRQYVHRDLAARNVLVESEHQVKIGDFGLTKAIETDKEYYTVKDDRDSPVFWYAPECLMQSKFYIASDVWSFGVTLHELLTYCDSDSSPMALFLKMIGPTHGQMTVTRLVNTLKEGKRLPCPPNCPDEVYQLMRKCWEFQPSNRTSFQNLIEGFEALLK

JNK1 = molecular target: T23, JNK1 (Homo sapiens, UniProt P45983); assay: KINOMEscan; assay type: binding; conditions: read-out: Percent Control
T23 construct: purchased Eurofins DiscoverX KINOMEscan (scanMAX 468)

MAPKAPK2 = molecular target: T24, MAPKAPK2 (Homo sapiens, UniProt P49137); assay: KINOMEscan; assay type: binding; conditions: read-out: Percent Control
T24 construct: purchased Eurofins DiscoverX KINOMEscan (scanMAX 468)

MET(Y1235D) = molecular target: T25, MET(Y1235D) (Homo sapiens, UniProt P08581, Y1235D); assay: KINOMEscan; assay type: binding; conditions: read-out: Percent Control
T25 construct: purchased Eurofins DiscoverX KINOMEscan (scanMAX 468)

MRCKB = molecular target: T26, MRCKB (Homo sapiens, UniProt Q9Y5S2); assay: KINOMEscan; assay type: binding; conditions: read-out: Percent Control
T26 construct: purchased Eurofins DiscoverX KINOMEscan (scanMAX 468)
T26 sequence (Q9Y5S2 whole entry): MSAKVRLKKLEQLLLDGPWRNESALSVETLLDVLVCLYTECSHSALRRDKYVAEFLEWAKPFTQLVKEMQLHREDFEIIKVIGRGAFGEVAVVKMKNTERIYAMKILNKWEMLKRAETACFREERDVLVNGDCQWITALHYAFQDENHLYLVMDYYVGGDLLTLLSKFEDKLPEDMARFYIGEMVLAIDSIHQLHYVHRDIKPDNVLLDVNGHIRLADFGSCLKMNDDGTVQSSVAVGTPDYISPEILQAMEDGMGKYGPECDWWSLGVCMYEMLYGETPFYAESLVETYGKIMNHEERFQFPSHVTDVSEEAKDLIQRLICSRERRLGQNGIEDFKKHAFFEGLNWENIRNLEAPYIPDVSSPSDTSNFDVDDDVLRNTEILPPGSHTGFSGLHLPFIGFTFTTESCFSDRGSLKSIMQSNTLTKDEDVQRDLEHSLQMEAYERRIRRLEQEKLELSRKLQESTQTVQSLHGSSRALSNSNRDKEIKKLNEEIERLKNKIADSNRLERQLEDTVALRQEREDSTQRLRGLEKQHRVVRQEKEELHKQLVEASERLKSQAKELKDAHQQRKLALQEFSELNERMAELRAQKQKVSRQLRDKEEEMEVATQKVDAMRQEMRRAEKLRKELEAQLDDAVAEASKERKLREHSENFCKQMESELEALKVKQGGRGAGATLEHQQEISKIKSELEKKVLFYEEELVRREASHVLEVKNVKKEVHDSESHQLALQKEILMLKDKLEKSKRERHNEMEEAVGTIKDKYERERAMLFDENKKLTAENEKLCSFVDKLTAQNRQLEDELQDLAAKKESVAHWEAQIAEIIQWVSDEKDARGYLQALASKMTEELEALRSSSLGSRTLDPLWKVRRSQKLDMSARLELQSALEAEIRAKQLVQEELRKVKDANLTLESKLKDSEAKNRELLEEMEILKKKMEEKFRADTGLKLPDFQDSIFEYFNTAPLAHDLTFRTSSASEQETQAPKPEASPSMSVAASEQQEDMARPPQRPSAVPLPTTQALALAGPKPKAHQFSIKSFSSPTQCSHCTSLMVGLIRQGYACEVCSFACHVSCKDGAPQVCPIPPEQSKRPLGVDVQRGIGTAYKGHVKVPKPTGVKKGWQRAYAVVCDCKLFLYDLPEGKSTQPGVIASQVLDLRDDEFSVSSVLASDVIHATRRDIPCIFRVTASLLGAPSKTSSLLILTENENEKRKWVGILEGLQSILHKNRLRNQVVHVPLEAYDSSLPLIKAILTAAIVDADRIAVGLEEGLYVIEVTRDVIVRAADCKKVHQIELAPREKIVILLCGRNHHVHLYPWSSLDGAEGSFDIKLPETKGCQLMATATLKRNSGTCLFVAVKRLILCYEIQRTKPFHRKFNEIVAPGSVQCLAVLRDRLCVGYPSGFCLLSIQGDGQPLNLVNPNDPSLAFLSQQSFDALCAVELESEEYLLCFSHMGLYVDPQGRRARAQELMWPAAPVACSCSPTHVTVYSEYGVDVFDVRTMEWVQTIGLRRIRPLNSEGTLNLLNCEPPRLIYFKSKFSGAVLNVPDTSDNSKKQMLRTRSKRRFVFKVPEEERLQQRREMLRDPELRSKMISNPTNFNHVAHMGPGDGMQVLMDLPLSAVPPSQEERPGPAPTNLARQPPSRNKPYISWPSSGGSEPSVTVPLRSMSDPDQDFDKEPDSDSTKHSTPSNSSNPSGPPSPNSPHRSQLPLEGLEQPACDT

MST1 = molecular target: T27, MST1 (Homo sapiens, UniProt Q13043); assay: KINOMEscan; assay type: binding; conditions: read-out: Percent Control
T27 construct: purchased Eurofins DiscoverX KINOMEscan (scanMAX 468)

NEK6 = molecular target: T28, NEK6 (Homo sapiens, UniProt Q9HC98); assay: KINOMEscan; assay type: binding; conditions: read-out: Percent Control
T28 construct: purchased Eurofins DiscoverX KINOMEscan (scanMAX 468)

PIK3CA = molecular target: T29, PIK3CA (Homo sapiens, UniProt P42336); assay: KINOMEscan; assay type: binding; conditions: read-out: Percent Control
T29 construct: purchased Eurofins DiscoverX KINOMEscan (scanMAX 468)

PIK3CA(E542K) = molecular target: T30, PIK3CA(E542K) (Homo sapiens, UniProt P42336, E542K); assay: KINOMEscan; assay type: binding; conditions: read-out: Percent Control
T30 construct: purchased Eurofins DiscoverX KINOMEscan (scanMAX 468)

PIK3CA(E545A) = molecular target: T31, PIK3CA(E545A) (Homo sapiens, UniProt P42336, E545A); assay: KINOMEscan; assay type: binding; conditions: read-out: Percent Control
T31 construct: purchased Eurofins DiscoverX KINOMEscan (scanMAX 468)

PRKD1 = molecular target: T32, PRKD1 (Homo sapiens, UniProt Q15139); assay: KINOMEscan; assay type: binding; conditions: read-out: Percent Control
T32 construct: purchased Eurofins DiscoverX KINOMEscan (scanMAX 468)

PRKR = molecular target: T33, PRKR (Homo sapiens, UniProt P19525); assay: KINOMEscan; assay type: binding; conditions: read-out: Percent Control
T33 construct: purchased Eurofins DiscoverX KINOMEscan (scanMAX 468)
T33 sequence (P19525 whole entry): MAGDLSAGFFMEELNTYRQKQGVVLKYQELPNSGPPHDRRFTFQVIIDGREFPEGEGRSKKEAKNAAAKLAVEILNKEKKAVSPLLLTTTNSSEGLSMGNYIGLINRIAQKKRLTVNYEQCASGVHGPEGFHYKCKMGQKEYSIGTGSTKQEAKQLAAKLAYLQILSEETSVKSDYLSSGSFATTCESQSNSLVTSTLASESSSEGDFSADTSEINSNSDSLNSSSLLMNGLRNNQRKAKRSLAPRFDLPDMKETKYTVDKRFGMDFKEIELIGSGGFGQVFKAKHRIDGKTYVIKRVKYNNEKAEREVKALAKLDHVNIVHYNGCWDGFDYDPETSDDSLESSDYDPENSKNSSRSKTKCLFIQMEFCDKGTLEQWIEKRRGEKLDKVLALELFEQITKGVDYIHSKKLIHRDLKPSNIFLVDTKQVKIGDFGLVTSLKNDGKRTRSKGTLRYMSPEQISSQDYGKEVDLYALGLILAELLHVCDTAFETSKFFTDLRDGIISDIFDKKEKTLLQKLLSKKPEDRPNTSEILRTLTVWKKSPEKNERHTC

RET(V804L) = molecular target: T34, RET(V804L) (Homo sapiens, UniProt P07949, V804L); assay: KINOMEscan; assay type: binding; conditions: read-out: Percent Control
T34 construct: purchased Eurofins DiscoverX KINOMEscan (scanMAX 468)
T34 sequence (P07949 29-1114 V804L): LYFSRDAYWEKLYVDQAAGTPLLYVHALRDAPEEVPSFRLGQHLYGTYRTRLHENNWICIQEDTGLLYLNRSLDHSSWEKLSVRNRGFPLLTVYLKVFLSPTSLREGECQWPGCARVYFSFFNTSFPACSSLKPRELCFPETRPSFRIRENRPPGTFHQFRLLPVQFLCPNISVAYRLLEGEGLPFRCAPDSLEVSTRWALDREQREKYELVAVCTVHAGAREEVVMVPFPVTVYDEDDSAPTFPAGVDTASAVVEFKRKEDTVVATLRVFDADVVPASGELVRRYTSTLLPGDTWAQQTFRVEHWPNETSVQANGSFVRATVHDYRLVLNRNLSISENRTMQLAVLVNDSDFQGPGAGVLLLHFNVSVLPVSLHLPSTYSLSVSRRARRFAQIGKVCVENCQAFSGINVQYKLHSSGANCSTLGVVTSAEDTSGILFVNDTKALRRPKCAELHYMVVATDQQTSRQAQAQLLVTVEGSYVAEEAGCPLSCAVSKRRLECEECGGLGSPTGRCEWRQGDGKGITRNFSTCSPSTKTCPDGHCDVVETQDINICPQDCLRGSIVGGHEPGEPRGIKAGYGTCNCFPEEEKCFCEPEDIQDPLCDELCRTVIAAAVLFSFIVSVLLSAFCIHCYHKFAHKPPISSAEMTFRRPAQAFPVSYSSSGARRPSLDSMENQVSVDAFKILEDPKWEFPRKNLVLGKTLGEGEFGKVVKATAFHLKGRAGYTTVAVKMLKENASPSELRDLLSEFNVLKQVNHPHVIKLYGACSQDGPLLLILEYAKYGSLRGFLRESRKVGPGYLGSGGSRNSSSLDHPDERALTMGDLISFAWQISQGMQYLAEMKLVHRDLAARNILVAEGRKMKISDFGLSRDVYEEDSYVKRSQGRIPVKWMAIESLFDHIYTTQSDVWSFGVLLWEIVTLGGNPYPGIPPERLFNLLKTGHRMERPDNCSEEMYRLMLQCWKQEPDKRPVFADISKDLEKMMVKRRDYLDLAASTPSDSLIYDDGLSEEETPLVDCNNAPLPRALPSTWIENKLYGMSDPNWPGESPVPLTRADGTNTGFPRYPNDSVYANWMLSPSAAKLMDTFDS

ROCK2 = molecular target: T35, ROCK2 (Homo sapiens, UniProt O75116); assay: KINOMEscan; assay type: binding; conditions: read-out: Percent Control
T35 construct: purchased Eurofins DiscoverX KINOMEscan (scanMAX 468)

STK39 = molecular target: T36, STK39 (Homo sapiens, UniProt Q9UEW8); assay: KINOMEscan; assay type: binding; conditions: read-out: Percent Control
T36 construct: purchased Eurofins DiscoverX KINOMEscan (scanMAX 468)

WNK4 = molecular target: T37, WNK4 (Homo sapiens, UniProt Q96J92); assay: KINOMEscan; assay type: binding; conditions: read-out: Percent Control
T37 construct: purchased Eurofins (KINOMEscan, DiscoverX)

YES = molecular target: T38, YES (Homo sapiens, UniProt P07947); assay: KINOMEscan; assay type: binding; conditions: read-out: Percent Control
T38 construct: purchased Eurofins (KINOMEscan, DiscoverX)

HCT116 = tested on: HCT116; parameters: method as in ref 14 (a number printed in a supplementary file, which may have a reference list of its own: not looked up in the article's list); conditions: DB18[a], footnote not given; read-out: Cytotoxic studies IC50 HCT116; cited from earlier work

Cc1ccc(-n2cc(COc3cccc4cnc(Nc5cccc(Cl)c5)nc34)nn2)c([N+](=O)[O-])c1 [DB18]
remaining binding at 1 µM (ABL2): 100%
remaining binding at 1 µM (ACVR2B): 100%
remaining binding at 1 µM (ALK(L1196M)): 98%
remaining binding at 1 µM (ANKK1): 100%
remaining binding at 1 µM (BMPR1A): 68%
remaining binding at 1 µM (BMX): 100%
remaining binding at 1 µM (CHEK2): 100%
remaining binding at 1 µM (CSF1R): 100%
remaining binding at 1 µM (CSF1R-autoinhibited): 71%
remaining binding at 1 µM (CSNK1G1): 100%
remaining binding at 1 µM [1]: 93%
remaining binding at 1 µM (EGFR(L861Q)): 99%
remaining binding at 1 µM (EIF2AK1): 100%
remaining binding at 1 µM (EPHA1): 95%
remaining binding at 1 µM (ERBB4): 100%
remaining binding at 1 µM (ERK8): 95%
remaining binding at 1 µM (FGFR3): 100%
remaining binding at 1 µM (FLT3(D835H)): 55%
remaining binding at 1 µM (FLT3(D835Y)): 29%
Percent Control (FLT3(ITD,D835V)): 53 % Ctrl
Percent Control (FLT3(ITD,F691L)): 94 % Ctrl
remaining binding at 1 µM (FLT3-autoinhibited): 100%
remaining binding at 1 µM (GRK3): 89%
remaining binding at 1 µM [2]: 100%
remaining binding at 1 µM (JNK1): 93%
remaining binding at 1 µM (MAPKAPK2): 100%
remaining binding at 1 µM (MET(Y1235D)): 100%
remaining binding at 1 µM (MRCKB): 94%
remaining binding at 1 µM (MST1): 100%
remaining binding at 1 µM (NEK6): 100%
remaining binding at 1 µM (PIK3CA): 95%
remaining binding at 1 µM (PIK3CA(E542K)): 80%
remaining binding at 1 µM (PIK3CA(E545A)): 100%
remaining binding at 1 µM (PRKD1): 100%
remaining binding at 1 µM (PRKR): 97%
remaining binding at 1 µM (RET(V804L)): 100%
remaining binding at 1 µM (ROCK2): 100%
remaining binding at 1 µM (STK39): 97%
remaining binding at 1 µM (WNK4): 100%
remaining binding at 1 µM (YES): 100%
IC50 (HCT116): > 25 µM
